Results: article PMC3250100 (The Journal of General Physiology, 2012)
pIC50: −log10 of the molar value.

Target: Cx50 (Mus musculus, UniProt P28236)
Format: biochemical

Chain of Cx50 (P28236 2-440): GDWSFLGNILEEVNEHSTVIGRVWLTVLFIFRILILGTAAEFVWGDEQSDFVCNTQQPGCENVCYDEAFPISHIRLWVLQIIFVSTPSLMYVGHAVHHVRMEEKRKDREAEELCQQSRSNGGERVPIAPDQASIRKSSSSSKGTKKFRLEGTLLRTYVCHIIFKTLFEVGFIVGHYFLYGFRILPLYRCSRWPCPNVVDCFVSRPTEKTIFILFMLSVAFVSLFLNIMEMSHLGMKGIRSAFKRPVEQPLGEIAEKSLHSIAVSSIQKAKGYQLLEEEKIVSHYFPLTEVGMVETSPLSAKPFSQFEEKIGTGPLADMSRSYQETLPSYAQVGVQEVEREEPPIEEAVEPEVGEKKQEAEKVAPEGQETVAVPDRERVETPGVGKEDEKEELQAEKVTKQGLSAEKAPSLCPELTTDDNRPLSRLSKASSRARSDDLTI

In the case of `C=C[C@H]1C[N+]2(Cc3ccccc3)CC[C@H]1C[C@H]2[C@H](O)c1ccnc2ccc(OC)cc12` [BQ+, N-benzylquininium], the pIC50 was 3.47.
